Measured values published in ChEMBL document CHEMBL5291721, “A preclinical secondary pharmacology resource illuminates target-adverse drug reaction associations of marketed drugs” (Nat Commun, 2023).

Columns and labels:
[1] = biological target: Gamma-aminobutyric acid type B receptor subunit 1 (Homo sapiens, UniProt Q9UBS5)
Cannabinoid receptor 1 = Cannabinoid receptor 1 (Homo sapiens, UniProt P21554); type: functional
[2] = biological target: T1, Corticotropin-releasing factor receptor 2 (Homo sapiens, UniProt Q13324)
T1 sequence (Q13324 whole entry): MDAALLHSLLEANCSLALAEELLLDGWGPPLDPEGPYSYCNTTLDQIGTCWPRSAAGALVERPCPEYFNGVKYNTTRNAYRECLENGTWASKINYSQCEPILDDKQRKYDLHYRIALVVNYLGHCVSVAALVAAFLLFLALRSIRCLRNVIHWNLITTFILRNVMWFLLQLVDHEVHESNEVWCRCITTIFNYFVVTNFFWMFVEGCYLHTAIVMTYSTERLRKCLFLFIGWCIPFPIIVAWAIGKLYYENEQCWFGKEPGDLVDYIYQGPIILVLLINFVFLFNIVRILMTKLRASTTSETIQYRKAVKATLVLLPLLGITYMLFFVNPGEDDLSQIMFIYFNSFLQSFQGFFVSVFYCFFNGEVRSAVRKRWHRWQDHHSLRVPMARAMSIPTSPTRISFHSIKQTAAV

Androgen receptor = biological target: T2, Androgen receptor (Rattus norvegicus, UniProt P15207); type: functional
T2 sequence (P15207 whole entry): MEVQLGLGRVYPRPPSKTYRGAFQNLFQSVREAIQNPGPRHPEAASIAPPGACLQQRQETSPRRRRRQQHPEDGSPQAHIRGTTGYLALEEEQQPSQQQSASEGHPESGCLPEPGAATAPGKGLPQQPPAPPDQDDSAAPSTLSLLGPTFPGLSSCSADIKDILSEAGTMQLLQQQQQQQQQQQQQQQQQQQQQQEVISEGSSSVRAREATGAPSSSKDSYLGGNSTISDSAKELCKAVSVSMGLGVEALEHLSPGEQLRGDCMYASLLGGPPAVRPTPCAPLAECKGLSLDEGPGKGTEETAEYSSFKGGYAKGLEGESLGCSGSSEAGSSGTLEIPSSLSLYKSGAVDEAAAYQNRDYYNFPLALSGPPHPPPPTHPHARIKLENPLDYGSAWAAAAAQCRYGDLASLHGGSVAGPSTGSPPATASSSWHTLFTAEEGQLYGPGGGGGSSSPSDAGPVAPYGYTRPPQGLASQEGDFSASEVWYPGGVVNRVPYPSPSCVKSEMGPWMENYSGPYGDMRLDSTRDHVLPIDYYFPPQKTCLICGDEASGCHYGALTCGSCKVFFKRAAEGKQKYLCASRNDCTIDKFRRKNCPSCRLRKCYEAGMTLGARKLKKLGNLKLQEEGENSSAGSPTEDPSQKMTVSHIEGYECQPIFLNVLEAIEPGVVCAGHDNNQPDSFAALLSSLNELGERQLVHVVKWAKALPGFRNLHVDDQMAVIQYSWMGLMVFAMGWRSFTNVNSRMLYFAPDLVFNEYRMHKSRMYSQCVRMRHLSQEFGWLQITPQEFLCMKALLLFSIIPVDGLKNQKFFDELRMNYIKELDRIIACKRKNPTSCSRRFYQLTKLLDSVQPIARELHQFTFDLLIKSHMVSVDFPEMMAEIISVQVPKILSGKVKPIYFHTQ

Glucocorticoid receptor = biological target: T3, Glucocorticoid receptor (Homo sapiens, UniProt P04150); type: functional
T3 sequence (P04150 whole entry): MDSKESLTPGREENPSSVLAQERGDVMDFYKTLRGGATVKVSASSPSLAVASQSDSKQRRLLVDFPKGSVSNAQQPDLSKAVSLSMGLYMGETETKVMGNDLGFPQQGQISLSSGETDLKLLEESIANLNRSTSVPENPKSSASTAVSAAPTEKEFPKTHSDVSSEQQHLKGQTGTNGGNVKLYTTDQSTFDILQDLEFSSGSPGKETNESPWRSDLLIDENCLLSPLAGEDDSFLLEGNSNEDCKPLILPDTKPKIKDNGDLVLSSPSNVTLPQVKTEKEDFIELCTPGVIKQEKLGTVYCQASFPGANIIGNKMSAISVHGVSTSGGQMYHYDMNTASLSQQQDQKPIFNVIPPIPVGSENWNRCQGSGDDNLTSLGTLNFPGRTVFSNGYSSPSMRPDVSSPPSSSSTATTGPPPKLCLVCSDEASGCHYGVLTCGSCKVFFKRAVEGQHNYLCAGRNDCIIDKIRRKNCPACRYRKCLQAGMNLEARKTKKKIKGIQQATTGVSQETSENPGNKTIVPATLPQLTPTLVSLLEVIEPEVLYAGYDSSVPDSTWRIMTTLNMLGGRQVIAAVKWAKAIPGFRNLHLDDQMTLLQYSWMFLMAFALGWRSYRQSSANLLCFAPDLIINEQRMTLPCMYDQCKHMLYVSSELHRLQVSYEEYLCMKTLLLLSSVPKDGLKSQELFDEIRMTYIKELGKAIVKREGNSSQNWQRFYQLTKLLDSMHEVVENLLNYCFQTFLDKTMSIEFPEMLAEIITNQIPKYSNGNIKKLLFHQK

[3] = biological target: Sodium channel protein type 5 subunit alpha (Homo sapiens, UniProt Q14524); type: functional, cell-based
Sequence of Sodium channel protein type 5 subunit alpha (Q14524 whole entry): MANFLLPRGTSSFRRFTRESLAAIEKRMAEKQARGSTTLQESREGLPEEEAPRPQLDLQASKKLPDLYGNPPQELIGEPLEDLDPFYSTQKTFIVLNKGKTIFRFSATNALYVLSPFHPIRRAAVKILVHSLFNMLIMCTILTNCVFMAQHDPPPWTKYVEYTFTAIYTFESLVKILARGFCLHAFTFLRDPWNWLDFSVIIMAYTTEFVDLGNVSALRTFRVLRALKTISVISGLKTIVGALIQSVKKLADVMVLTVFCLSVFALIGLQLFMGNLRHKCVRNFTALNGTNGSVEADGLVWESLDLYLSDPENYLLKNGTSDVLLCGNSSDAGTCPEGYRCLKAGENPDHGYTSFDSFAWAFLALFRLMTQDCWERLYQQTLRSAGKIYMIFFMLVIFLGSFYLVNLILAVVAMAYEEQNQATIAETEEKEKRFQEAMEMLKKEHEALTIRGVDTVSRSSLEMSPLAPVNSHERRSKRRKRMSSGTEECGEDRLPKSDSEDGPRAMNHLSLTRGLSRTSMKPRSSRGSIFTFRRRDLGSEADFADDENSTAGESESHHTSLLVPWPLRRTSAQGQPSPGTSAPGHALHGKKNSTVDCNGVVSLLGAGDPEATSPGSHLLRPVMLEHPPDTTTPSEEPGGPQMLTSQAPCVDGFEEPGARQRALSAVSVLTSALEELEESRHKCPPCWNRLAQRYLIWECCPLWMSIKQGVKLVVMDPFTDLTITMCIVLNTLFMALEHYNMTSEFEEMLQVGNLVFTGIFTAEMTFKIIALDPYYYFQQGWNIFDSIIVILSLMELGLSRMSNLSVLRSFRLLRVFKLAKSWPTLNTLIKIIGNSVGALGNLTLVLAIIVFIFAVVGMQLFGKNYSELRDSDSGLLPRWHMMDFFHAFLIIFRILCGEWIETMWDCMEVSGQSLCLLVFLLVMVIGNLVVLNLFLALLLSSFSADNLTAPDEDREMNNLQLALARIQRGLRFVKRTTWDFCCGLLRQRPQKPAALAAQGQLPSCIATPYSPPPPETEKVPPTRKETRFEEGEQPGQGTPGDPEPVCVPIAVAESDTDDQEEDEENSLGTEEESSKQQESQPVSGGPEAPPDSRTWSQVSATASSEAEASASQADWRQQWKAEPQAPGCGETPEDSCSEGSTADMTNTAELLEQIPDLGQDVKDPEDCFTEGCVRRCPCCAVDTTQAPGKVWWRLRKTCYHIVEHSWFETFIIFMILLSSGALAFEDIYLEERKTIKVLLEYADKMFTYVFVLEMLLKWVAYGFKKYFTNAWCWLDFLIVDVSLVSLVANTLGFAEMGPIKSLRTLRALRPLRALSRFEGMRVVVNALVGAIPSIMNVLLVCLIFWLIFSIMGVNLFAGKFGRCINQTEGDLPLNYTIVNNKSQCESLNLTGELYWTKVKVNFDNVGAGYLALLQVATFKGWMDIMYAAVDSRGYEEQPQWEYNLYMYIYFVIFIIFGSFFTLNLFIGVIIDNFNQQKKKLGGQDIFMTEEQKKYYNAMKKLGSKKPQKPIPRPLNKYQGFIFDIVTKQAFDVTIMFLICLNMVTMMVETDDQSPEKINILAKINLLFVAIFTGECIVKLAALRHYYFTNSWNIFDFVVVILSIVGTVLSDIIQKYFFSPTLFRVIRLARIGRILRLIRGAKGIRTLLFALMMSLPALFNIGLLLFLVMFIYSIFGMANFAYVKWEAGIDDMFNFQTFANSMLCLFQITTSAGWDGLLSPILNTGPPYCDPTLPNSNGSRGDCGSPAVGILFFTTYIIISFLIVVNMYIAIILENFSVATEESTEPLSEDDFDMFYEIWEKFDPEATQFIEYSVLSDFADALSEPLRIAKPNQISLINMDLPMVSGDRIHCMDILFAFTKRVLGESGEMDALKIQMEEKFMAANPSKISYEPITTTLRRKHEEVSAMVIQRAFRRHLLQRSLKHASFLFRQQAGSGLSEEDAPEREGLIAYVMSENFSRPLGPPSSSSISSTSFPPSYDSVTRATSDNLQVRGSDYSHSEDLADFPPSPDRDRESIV

Estrogen receptor = biological target: T4, Estrogen receptor (Homo sapiens, UniProt P03372); type: functional
T4 sequence (P03372 whole entry): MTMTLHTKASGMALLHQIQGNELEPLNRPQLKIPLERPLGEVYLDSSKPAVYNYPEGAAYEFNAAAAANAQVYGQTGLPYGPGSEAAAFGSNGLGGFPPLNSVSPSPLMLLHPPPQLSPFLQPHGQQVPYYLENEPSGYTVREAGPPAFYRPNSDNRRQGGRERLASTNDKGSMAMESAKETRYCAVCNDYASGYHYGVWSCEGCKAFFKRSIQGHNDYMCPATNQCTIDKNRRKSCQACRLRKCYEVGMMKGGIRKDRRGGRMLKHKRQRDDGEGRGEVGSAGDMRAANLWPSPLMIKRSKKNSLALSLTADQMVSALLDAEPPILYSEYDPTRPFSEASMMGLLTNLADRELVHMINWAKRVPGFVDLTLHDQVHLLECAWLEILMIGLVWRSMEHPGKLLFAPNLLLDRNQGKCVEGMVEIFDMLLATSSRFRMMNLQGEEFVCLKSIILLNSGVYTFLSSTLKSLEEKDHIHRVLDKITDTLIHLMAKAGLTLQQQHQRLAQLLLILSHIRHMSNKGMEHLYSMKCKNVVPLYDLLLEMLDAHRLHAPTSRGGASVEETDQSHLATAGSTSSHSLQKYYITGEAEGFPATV

[4] = biological target: 5-hydroxytryptamine receptor 2A (Homo sapiens, UniProt P28223)
Sequence of 5-hydroxytryptamine receptor 2A (P28223 whole entry): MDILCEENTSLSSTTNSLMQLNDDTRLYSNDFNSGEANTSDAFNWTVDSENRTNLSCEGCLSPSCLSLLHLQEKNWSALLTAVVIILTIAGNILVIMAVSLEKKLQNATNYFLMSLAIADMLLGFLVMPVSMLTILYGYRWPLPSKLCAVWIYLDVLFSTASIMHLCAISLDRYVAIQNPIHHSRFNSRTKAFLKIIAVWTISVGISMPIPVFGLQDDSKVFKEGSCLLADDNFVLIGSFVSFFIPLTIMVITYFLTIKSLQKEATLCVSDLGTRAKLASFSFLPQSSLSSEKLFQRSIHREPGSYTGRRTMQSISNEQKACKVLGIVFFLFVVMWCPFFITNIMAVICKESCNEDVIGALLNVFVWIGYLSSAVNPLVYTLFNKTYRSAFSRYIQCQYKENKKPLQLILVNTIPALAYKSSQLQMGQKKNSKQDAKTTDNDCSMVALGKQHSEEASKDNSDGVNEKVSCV
Also: assay procedure not described here.

Sequence of Gamma-aminobutyric acid type B receptor subunit 1 (Q9UBS5 whole entry): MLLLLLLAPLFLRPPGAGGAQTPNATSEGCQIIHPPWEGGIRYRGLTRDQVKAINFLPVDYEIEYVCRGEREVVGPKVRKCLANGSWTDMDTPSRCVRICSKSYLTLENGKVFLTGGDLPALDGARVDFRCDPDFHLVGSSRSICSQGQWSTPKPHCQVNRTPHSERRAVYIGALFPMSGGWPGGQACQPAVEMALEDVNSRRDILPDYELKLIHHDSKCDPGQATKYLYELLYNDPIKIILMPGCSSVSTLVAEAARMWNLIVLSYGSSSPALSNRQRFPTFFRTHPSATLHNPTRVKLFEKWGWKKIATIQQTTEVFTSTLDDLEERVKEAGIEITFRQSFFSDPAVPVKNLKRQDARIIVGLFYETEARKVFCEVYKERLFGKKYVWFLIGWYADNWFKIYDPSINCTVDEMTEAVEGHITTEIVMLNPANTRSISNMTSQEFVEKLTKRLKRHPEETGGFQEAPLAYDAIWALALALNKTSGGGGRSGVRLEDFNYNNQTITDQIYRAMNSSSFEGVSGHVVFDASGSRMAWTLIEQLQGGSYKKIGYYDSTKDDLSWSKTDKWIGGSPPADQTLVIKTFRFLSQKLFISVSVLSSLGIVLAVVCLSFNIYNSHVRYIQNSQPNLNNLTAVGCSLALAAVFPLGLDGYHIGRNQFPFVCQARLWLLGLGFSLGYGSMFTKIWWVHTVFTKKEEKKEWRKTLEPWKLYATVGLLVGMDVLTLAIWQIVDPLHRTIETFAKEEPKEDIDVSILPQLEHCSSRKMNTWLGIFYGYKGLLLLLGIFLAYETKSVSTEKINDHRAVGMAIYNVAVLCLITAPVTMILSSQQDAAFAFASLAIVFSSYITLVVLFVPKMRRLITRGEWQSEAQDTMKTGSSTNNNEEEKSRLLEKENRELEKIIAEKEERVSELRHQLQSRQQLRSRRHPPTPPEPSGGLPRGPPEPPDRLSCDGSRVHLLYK
Sequence of Cannabinoid receptor 1 (P21554 whole entry): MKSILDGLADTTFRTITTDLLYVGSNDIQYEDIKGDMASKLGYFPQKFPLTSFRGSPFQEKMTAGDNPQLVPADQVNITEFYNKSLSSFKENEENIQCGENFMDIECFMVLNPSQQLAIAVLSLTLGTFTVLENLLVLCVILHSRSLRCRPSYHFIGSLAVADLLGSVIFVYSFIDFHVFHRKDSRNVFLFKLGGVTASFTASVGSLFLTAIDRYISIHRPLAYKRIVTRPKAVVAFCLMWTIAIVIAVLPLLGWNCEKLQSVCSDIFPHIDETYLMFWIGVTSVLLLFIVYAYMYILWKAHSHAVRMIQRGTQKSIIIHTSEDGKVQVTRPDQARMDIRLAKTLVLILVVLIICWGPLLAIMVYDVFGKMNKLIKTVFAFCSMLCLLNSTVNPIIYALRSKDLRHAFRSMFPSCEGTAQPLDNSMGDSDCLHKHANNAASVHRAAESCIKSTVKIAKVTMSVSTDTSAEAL

## N=C(N)NC(=O)c1nc(Cl)c(N)nc1N [AMILORIDE]
[1]
  AC50: > 10 µM
Cannabinoid receptor 1
  AC50: > 10 µM
[2]
  AC50: > 30 µM

## C[C@]12C=CC(=O)C=C1C(Cl)=C[C@@H]1[C@@H]2[C@@H](O)C[C@@]2(C)[C@H]1CC[C@]2(O)C(=O)CO [CLOPREDNOL]
Androgen receptor
  AC50: > 30 µM

## COc1cccc2c1C(=O)c1c(O)c3c(c(O)c1C2=O)C[C@@](O)(C(=O)CO)C[C@@H]3O[C@H]1C[C@H](N)[C@H](O)[C@H](C)O1 [DOXORUBICIN]
Glucocorticoid receptor
  AC50: 11 µM
[3]
  AC50: > 50 µM
Estrogen receptor
  AC50: > 10 µM

## CC(C)(Oc1ccc(Cl)cc1)C(=O)OCCOC(=O)c1cccnc1 [ETOFIBRATE]
Androgen receptor
  AC50: > 30 µM

## C[C@]12C=CC(=O)C=C1CC[C@@H]1[C@@H]2[C@@H](O)C[C@@]2(C)[C@H]1CC[C@]2(O)C(=O)CO [PREDNISOLONE]
[2]
  AC50: > 30 µM

## CCC(=O)c1ccc2c(c1)N(CC(C)N(C)C)c1ccccc1S2 (stereo not given) [PROPIOMAZINE]
[4]
  AC50: 0.0233 µM

## C[C@@H]1CN(c2c(F)c(N)c3c(=O)c(C(=O)O)cn(C4CC4)c3c2F)C[C@H](C)N1 [SPARFLOXACIN]
[3]
  AC50: > 50 µM

## Cc1ccc(O)c([C@H](CCN(C(C)C)C(C)C)c2ccccc2)c1 [TOLTERODINE]
[1]
  AC50: > 10 µM
[4]
  AC50: 8.84 µM
Cannabinoid receptor 1
  AC50: > 10 µM

## CC1(C)O[C@@H]2C[C@H]3[C@@H]4CCC5=CC(=O)C=C[C@]5(C)[C@@]4(F)[C@@H](O)C[C@]3(C)[C@]2(C(=O)CO)O1 [TRIAMCINOLONE ACETONIDE]
Glucocorticoid receptor
  AC50: 0.0039 µM
